Experiments:
[1] = target: T1, 5-hydroxytryptamine receptor 1A (Homo sapiens) (UniProt P08908); test: Displacement of [3H]8-OH-DPAT from recombinant human 5-HT1A receptor expressed in HEK293 cell membranes at 10 uM after 60 mins by TopCount scintillation counting method relative to control
T1 sequence (whole entry): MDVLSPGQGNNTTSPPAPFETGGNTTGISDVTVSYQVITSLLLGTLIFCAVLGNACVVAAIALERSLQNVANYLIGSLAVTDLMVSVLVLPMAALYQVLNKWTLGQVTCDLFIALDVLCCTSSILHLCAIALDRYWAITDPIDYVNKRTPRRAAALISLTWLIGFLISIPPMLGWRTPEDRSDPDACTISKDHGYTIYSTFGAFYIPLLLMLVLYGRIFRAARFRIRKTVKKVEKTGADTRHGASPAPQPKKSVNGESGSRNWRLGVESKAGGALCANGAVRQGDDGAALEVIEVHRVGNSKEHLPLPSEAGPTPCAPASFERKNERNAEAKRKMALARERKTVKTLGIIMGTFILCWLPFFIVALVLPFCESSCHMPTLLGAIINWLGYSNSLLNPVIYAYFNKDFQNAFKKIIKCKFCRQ

[2] = target: T2, 5-hydroxytryptamine receptor 1A (Homo sapiens, UniProt P08908); test: Displacement of [3H]8-OH-DPAT from recombinant human 5-HT1A receptor expressed in HEK293 cell membranes after 60 mins by TopCount scintillation counting method
T2 sequence (P08908 whole entry): T1 sequence (whole entry)

[3] = target: 5-hydroxytryptamine receptor 7 (Homo sapiens, UniProt P34969); test: Displacement of [3H]LSD from recombinant human 5-HT7 receptor expressed in CHO cell membranes after 120 mins by TopCount scintillation counting method
[4] = Clearance in rat liver microsomes at 1 uM in presence of NADPH by LC-MS/MS analysis; type: ADME, microsome; conditions: read-out: CLH
Mus musculus [5] = test: Antidepressant-like activity in mouse assessed as reduction in immobility time at 20 mg/kg/day, po once daily for 7 days measured for last 4 mins of 6 mins test at 1 hr post last dose by forced swim test relative to control; type: functional; set-up: scale not given: the % may be the effect or the level left
Mus musculus [6] = test: Antidepressant-like activity in mouse assessed as reduction in immobility time at 10 mg/kg/day, po once daily for 7 days measured for last 4 mins of 6 mins test at 1 hr post last dose by forced swim test relative to control; type: functional; set-up: scale not given: the % may be the effect or the level left
Mus musculus [7] = test: Antidepressant-like activity in po dosed mouse assessed as reduction in immobility time administered once daily for 7 days measured for last 4 mins of 6 mins test at 1 hr post last dose by forced swim test; type: functional, organism-based
Mus musculus [8] = test: Antidepressant-like activity in mouse assessed as reduction in immobility time at 40 mg/kg/day, po administered once daily for 7 days measured for 5 mins at 1 hr post last dose by tail suspension test relative to control; type: functional; set-up: scale not given: the % may be the effect or the level left
Mus musculus [9] = test: Antidepressant-like activity in mouse assessed as reduction in immobility time at 20 mg/kg/day, po administered once daily for 7 days measured for 5 mins at 1 hr post last dose by tail suspension test relative to control; type: functional; set-up: scale not given: the % may be the effect or the level left
Mus musculus [10] = test: Antidepressant-like activity in mouse assessed as reduction in immobility time at 10 mg/kg/day, po administered once daily for 7 days measured for 5 mins at 1 hr post last dose by tail suspension test relative to control; type: functional; set-up: scale not given: the % may be the effect or the level left
Homo sapiens = species on record: Homo sapiens; test: Selectivity ratio of Ki for alpha1-adrenoceptor (unknown origin) in cerebral cortex membranes to Ki for recombinant human 5-HT1A receptor expressed in HEK293 cell membranes; type: cell-based
[11] = AUC (0 to t) in Sprague-Dawley rat at 2 mg/kg, po administered as single dose by LC-MS/MS analysis; type: ADME, organism-based; conditions: in vivo
[12] = MRT (0 to t) in Sprague-Dawley rat at 2 mg/kg, po administered as single dose by LC-MS/MS analysis; type: ADME, organism-based; conditions: in vivo
[13] = Apparent volume of distribution during terminal phase in Sprague-Dawley rat at 2 mg/kg, po administered as single dose by LC-MS/MS analysis; type: ADME, organism-based; conditions: in vivo, read-out: Vz/F
[14] = Apparent clearance during terminal phase in Sprague-Dawley rat at 2 mg/kg, po administered as single dose by LC-MS/MS analysis; type: ADME, organism-based; conditions: in vivo, read-out: CLz/F (converted)
[15] = Cmax in Sprague-Dawley rat at 2 mg/kg, po administered as single dose by LC-MS/MS analysis; type: ADME, organism-based; set-up: dose 2 mg/kg, route oral; conditions: in vivo
[16] = AUC (0 to t) in Sprague-Dawley rat at 0.5 mg/kg, iv administered as single dose by LC-MS/MS analysis; type: ADME, organism-based; conditions: in vivo
[17] = AUC (0 to infinity) in Sprague-Dawley rat at 0.5 mg/kg, iv administered as single dose by LC-MS/MS analysis; type: ADME, organism-based; set-up: dose 0.5 mg/kg, time infinity, route intravenous; conditions: in vivo
[18] = MRT (0 to t) in Sprague-Dawley rat at 0.5 mg/kg, iv administered as single dose by LC-MS/MS analysis; type: ADME, organism-based; conditions: in vivo
[19] = Apparent terminal half life in Sprague-Dawley rat at 0.5 mg/kg, iv administered as single dose by LC-MS/MS analysis; type: ADME, organism-based; conditions: in vivo, read-out: betat1/2(app) (converted)
[20] = Tmax in Sprague-Dawley rat at 0.5 mg/kg, iv administered as single dose by LC-MS/MS analysis; type: ADME, organism-based; conditions: in vivo
[21] = Cmax in Sprague-Dawley rat at 0.5 mg/kg, iv administered as single dose by LC-MS/MS analysis; type: ADME, organism-based; set-up: dose 0.5 mg/kg, route intravenous; conditions: in vivo
[22] = Plasma concentration in Sprague-Dawley rat at 2 mg/kg, po administered as single dose measured after 1 hr by LC-MS/MS analysis; type: ADME, organism-based
[23] = Plasma concentration in Sprague-Dawley rat at 2 mg/kg, po administered as single dose measured after 4 hrs by LC-MS/MS analysis; type: ADME, organism-based
[24] = Plasma concentration in Sprague-Dawley rat at 2 mg/kg, po administered as single dose measured after 6 hrs by LC-MS/MS analysis; type: ADME, organism-based
[25] = Plasma concentration in Sprague-Dawley rat at 2 mg/kg, po administered as single dose measured after 8 hrs by LC-MS/MS analysis; type: ADME, organism-based
[26] = Plasma concentration in Sprague-Dawley rat at 2 mg/kg, po administered as single dose measured after 9 hrs by LC-MS/MS analysis; type: ADME, organism-based
[27] = Plasma concentration in Sprague-Dawley rat at 0.5 mg/kg, iv administered as single dose measured after 30 mins by LC-MS/MS analysis; type: ADME, organism-based
[28] = Plasma concentration in Sprague-Dawley rat at 0.5 mg/kg, iv administered as single dose measured after 1 hr by LC-MS/MS analysis; type: ADME, organism-based
[29] = Plasma concentration in Sprague-Dawley rat at 0.5 mg/kg, iv administered as single dose measured after 2 hrs by LC-MS/MS analysis; type: ADME, organism-based
[30] = Plasma concentration in Sprague-Dawley rat at 0.5 mg/kg, iv administered as single dose measured after 4 hrs by LC-MS/MS analysis; type: ADME, organism-based
[31] = Plasma concentration in Sprague-Dawley rat at 0.5 mg/kg, iv administered as single dose measured after 6 hrs by LC-MS/MS analysis; type: ADME, organism-based
in vitro = conditions: rat, liver microsomes
Description: Half life in rat liver microsomes at 1 uM in presence of NADPH by LC-MS/MS analysis

5-hydroxytryptamine receptor 7, sequence (P34969 whole entry): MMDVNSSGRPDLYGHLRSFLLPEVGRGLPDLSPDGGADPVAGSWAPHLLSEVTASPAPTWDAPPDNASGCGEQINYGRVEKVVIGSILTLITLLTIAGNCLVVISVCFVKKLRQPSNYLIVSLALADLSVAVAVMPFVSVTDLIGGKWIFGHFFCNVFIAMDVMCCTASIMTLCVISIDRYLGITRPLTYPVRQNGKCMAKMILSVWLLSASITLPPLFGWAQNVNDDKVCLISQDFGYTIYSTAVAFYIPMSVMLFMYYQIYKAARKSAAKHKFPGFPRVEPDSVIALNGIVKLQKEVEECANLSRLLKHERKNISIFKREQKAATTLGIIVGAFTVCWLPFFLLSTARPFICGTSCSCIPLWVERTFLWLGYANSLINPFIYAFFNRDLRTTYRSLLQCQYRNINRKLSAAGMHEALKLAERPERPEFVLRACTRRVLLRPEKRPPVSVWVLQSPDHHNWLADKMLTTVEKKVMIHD

inhibition [1]: > 90%
Ki [2]: 28 nM
Ki [3]: 3.3 nM
microsomal CLint at 1 µM [4]: 29.8 µL/min/mg
AUC(0-t) [11]: 536 ng·h/mL
MRT last [12]: 4.3 h
Vd/F [13]: 17.1 L/kg
CL/F [14]: 40 mL/min/kg
Cmax [15]: 86.7 ng/mL
AUC(0-t) [16]: 287 ng·h/mL
AUC(0-inf) [17]: 328 ng·h/mL
MRT last [18]: 1.9 h
half-life [19]: 3.3 h
Tmax [20]: 6 min
Cmax [21]: 342 ng/mL
concentration at 1 h [22]: 72.8 ng/mL
concentration at 4 h [23]: 60.7 ng/mL
concentration at 6 h [24]: 64.7 ng/mL
concentration at 8 h [25]: 47.4 ng/mL
concentration at 9 h [26]: 34.9 ng/mL
concentration at 0.5 h [27]: 80.8 ng/mL
concentration at 1 h [28]: 51.3 ng/mL
concentration at 2 h [29]: 32.3 ng/mL
concentration at 4 h [30]: 20.7 ng/mL
concentration at 6 h [31]: 12.4 ng/mL
half-life at 1 µM (in vitro): 0.775 h
SMILES: Fc1ccc(N2CCN(CCCc3c[nH]c4ccc(F)cc34)CC2)c(-c2ccccc2)c1
Activity (Mus musculus [5]): 27%
Activity (Mus musculus [6]): 24%
Activity (Mus musculus [7]): Dose-dependent effect
Activity (Mus musculus [8]): 39%
Activity (Mus musculus [9]): 20%
Activity (Mus musculus [10]): 18%
Ratio Ki (Homo sapiens): 1
